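Five compound concentrations were applied to cells in 96-well plates for 48 hours; endpoints were derived by simple linear interpolation of the resulting dose-response curve. TGI marks complete inhibition of growth.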
What was measured:
Assay in all cases: NCI-60 cell line screen, 48 h
CAKI-1 renal = test system: CAKI-1 renal
CCRF-CEM leukemia = test system: CCRF-CEM leukemia
IGROV1 ovarian = test system: IGROV1 ovarian
LOX IMVI melanoma = test system: LOX IMVI melanoma
MALME-3M melanoma = test system: MALME-3M melanoma
MOLT-4 leukemia = test system: MOLT-4 leukemia
RPMI-8226 leukemia = test system: RPMI-8226 leukemia
SK-MEL-5 melanoma = test system: SK-MEL-5 melanoma
SN12C renal = test system: SN12C renal
T-47D breast = test system: T-47D breast

Row | SMILES | TGI (CAKI-1 renal) [µM] | TGI (CCRF-CEM leukemia) [µM] | TGI (IGROV1 ovarian) [µM] | TGI (LOX IMVI melanoma) [µM] | TGI (MALME-3M melanoma) [µM] | TGI (MOLT-4 leukemia) [µM] | TGI (RPMI-8226 leukemia) [µM] | TGI (SK-MEL-5 melanoma) [µM] | TGI (SN12C renal) [µM] | TGI (T-47D breast) [µM]
1 | COc1ccc(C2C3=C(COC3=O)Oc3cc4c(cc32)OCO4)c(OC)c1 (stereo not given) | > 100 | > 100 | > 100 | > 100 | > 100 | > 100 | > 100 | > 100 | > 100 | 
2 | O=C(O)c1cccc2cccc(-c3cccc4cccc(C(=O)O)c34)c12 | > 100 | > 100 | > 100 | > 100 | > 100 |  |  | > 100 | > 100 | > 100
3 | Cn1c(=O)c(-c2ccccc2)c(O)c2ccccc21 | > 100 | > 100 | > 100 | > 100 | > 100 | > 100 | > 100 | > 100 | > 100 | 
4 | O=C(OCCN=c1c2ccccc2ccc2ccccc12)c1ccccc1 | > 100 | > 100 | > 100 | > 100 | > 100 | > 100 | > 100 | > 100 | > 100 | 
5 | COc1ccccc1CN=C1Nc2ccncc2S(=O)(=O)N1c1ccccc1 | > 100 | > 100 | > 100 | > 100 | > 100 | > 100 | > 100 | > 100 | > 100 | 
6 | CCC(O)(Cc1ccc(OC)cc1)c1ccc(OC)cc1 (stereo not given) | > 100 | > 100 | > 100 | > 100 | > 100 | > 100 | > 100 | > 100 | > 100 | 
7 | CCOC(=O)C1(C#N)C(c2ccccc2)CC(O)(c2ccc(Cl)cc2)C(C(=O)c2ccc(Cl)cc2)C1c1ccccc1 (stereo not given) | > 100 | > 100 | > 100 | > 100 | > 100 | > 100 | > 100 | > 100 | > 100 | 
8 | CN1C(=O)N(C)C(O)C(Cl)(Br)C1=O (stereo not given) | > 100 | > 100 | > 100 | > 100 | > 100 | > 100 | > 100 | > 100 | > 100 | 
9 | CSc1nc(NC(C)C)c2c(n1)Sc1nc3ccccc3n1N=C2 | > 100 | > 100 | > 100 | > 100 | 38 | > 100 | > 100 | 23.9 | 35.4 | 
10 | CCCCC1=C(C(=O)N2CCOCC2)C2(OCCO2)C1=O | 78.1 | > 100 | 37 | 25.4 | 57 | > 100 |  | 33.2 | 32.7 | > 100
11 | Cc1cc(S(=O)(=O)/N=C(/C(=C=[N-])C#N)[n+]2ccc(N(C)C)cc2)c(SCC(=O)O)cc1Cl | > 100 | > 100 | > 100 |  | 64.5 | > 100 | > 100 | > 100 | > 100 | > 100
12 | CS(=O)(=O)CSCSSCS(C)(=O)=O | > 57.2 | 70.5 | > 100 | 71.2 | > 100 | > 82.9 | 55.3 | > 100 | > 93.3 | 
13 | OCCOCn1nncc1Cn1ncc2c(SCc3ccccc3)ncnc21 | > 100 |  | > 100 | > 100 | > 100 | 34 |  | > 100 | > 100 | > 100
14 | CN(C)CC1CCC/C(=C\c2ccc(OC(=O)c3ccc(Cl)cc3)cc2)C1=O (stereo not given) | 5.13 |  | 8.27 | 1.98 | 6.8 | 3.19 | 1.99 | 12.1 | 4.84 | 2.21
15 | CCOC(=O)c1s/c(=N\Nc2nc3ccccc3cc2C2OCCO2)n(Cc2ccccc2)c1C | > 100 | > 100 | > 100 | > 100 | > 100 | > 100 | > 100 | > 100 | > 100 | 
16 | Cc1c(CN2CCN(C)CC2)c(CN2CCN(C)CC2)c(C)n1-c1ccc(Cl)cc1 | 59.9 | 46.8 | > 100 |  | 37.5 | 82.8 | > 100 | 31.7 | > 100 | 46.4
17 | COc1ccc(Nc2nc(N)c(C(=O)c3c[nH]c4ccccc34)s2)cc1 | > 100 | 6.02 | > 100 | > 100 | 21.6 | 20.9 |  | 14.4 | > 100 | > 88.3
18 | C[C@]12CCC(=O)[C@@H](CCC3=CC(=O)C=CC3=O)[C@@H]1CCC2=O | 27.7 | > 100 |  | 39.3 | 37.9 | > 100 | > 100 | 20.7 | > 100 | > 81.7
19 | CC(C)(C)OC(=O)NC(Cc1ccccc1)NC(=O)NC(=O)OCc1ccccc1 (stereo not given) | 64.1 |  | > 100 |  | > 100 | > 100 | > 100 | > 100 | > 100 | 
20 | COC(=O)[C@@H]1CCCCC[C@H]2C(CO)=C(C)C(=O)C12 (stereo not given in full) | > 100 | > 100 | > 100 |  | > 100 | > 100 | > 100 | > 100 | > 100 | 
21 | COC(=O)C1(CCCCCBr)CCCCCCCCCCC1=O (stereo not given) | 53.9 | 45 | 87.2 | 63.3 | 47.6 | 35.6 |  | 35.1 | > 100 | > 100
22 | NC(=O)c1csc(C2(O)COC(CO)C2O)n1 (stereo not given) | > 100 | > 100 | > 100 | > 100 | > 100 |  | > 100 | > 100 | > 100 | > 100
23 | C=C1OC(c2ccccc2NC)=NC12CCCCC2 | > 100 | > 100 | > 100 | > 100 | > 100 | > 100 |  | > 100 | > 100 | > 100
24 | O=C1C=CC(=O)N1n1c(-c2ccccc2)n[nH]c1=O | > 100 | > 100 | > 100 |  | > 100 | > 100 |  | > 100 | > 100 | > 100

Reference: PubChem BioAssay (NCI)
